Results from publication PMC12138978, “Mu Opioid Receptor Positive Allosteric Modulator BMS-986122 Confers Agonist-Dependent G Protein Subtype Signaling Bias” (Biochemistry, 2025).
Where “and” joins values, the source holds several entries; their conditions need not be identical. Identical values can stand only once. Marks after values point to notes of the source that are not given here.

Experiments:
human MOR = human MOR (Homo sapiens, UniProt P35372); experiment: [3H]naloxone competition binding, MOR-CHO cell membranes, low-affinity buffer; conditions: fold change of Ki, vehicle vs 10 μM BMS-986122
Sequence of human MOR (P35372 whole entry): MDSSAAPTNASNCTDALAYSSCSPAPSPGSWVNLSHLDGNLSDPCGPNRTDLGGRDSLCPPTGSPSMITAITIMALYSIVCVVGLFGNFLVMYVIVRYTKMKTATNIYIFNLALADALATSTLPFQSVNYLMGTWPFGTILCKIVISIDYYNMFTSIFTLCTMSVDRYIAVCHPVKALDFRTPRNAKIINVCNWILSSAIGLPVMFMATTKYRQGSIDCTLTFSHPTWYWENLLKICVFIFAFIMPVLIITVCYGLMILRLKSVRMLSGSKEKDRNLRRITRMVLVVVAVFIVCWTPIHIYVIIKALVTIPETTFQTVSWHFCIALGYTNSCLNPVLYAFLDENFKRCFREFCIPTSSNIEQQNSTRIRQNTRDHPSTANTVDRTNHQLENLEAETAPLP
Protocol: Chinese hamster ovary cells stably expressing the human MOR (MOR-CHO; obtained from Dr. George Uhl, NIDA Intramural Research Program, Baltimore, MD) were cultured in 10 cm dishes in Dulbecco’s modified Eagle’s medium (DMEM) supplemented with 5% fetal bovine serum and 100 U/mL penicillin–streptomycin at 37 °C in a 10% CO2 atmosphere. Cell membranes were isolated and homogenized as previously described, and membrane protein concentrations were determined with bovine serum albumin as the control as previously described. Membranes were stored at −80 °C until use.
[^3H]­Naloxone was used at a final concentration of 1.0 nM, and nonspecific binding was measured using 10 μM unlabeled naloxone. Membranes were added last to the incubation tube. All assays were performed at 25 °C and terminated by rapid vacuum filtration through Whatman #32 glass fiber filters using a Brandel cell harvester (Biomedical Research and Development Laboratories Inc., Gaithersburg, MD) followed by three ice-cold washes with 50 mM Tris-HCl, pH 7.4. Samples were collected and counted in 2 mL of Ecoscint A scintillation fluid (National Diagnostics, Atlanta, GA) for 2 min each using a LS 6500 scintillation counter (Beckman Coulter Inc., Fullerton, CA).
For competition binding experiments, the specific binding of the radioligand in the absence of other competing compounds was set at 100%. The percent of control binding was calculated for increasing concentrations of the competing compounds. A three- or four-parameter logistic curve was fit to the data by using SigmaPlot 11 (Systat Software Inc., San Jose, CA). […] Ki values were calculated as described previously. Statistical differences between Ki values were calculated using a two-tailed Student’s t test. Receptor binding data were reported as the mean Ki value ± SEM from three separate experiments performed in triplicate.

[1] = molecular target: T1, human MOR signaling through Gαi1 (Homo sapiens, UniProt P35372); type: cell-based
T1 construct: host or cells: HEK 293T, transient
T1 sequence (P35372 whole entry): as above
T1 sequence (P63096 2-354 partner limits assumed): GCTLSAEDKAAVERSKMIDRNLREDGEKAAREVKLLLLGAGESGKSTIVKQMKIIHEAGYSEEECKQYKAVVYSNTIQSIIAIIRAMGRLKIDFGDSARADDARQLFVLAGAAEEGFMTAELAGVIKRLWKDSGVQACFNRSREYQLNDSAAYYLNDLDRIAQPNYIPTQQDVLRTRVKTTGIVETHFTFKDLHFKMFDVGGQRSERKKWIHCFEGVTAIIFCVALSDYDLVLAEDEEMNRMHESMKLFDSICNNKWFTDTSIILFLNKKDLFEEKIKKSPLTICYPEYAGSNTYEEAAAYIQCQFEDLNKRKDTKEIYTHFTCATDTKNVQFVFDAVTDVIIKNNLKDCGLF

[2] = molecular target: T2, human MOR signaling through Gαi2 (Homo sapiens, UniProt P35372); type: cell-based
T2 construct: host or cells: HEK 293T, transient
T2 sequence (P35372 whole entry): as the sequence (P35372 whole entry) above
T2 sequence (P04899 2-355 partner limits assumed): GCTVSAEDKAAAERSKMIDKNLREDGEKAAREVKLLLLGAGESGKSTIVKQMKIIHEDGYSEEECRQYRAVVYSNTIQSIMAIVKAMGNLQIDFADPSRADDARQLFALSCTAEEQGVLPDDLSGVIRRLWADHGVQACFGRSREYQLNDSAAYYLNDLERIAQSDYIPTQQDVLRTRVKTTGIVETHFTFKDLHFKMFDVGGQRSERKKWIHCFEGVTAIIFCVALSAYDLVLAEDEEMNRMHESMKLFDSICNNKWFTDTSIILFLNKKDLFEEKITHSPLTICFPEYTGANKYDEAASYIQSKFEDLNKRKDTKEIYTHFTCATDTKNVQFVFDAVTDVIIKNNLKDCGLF

[3] = molecular target: T3, human MOR signaling through Gαi3 (Homo sapiens, UniProt P35372); type: cell-based
T3 construct: host or cells: HEK 293T, transient
T3 sequence (P35372 whole entry): as the sequence (P35372 whole entry) above
T3 sequence (P08754 2-354 partner limits assumed): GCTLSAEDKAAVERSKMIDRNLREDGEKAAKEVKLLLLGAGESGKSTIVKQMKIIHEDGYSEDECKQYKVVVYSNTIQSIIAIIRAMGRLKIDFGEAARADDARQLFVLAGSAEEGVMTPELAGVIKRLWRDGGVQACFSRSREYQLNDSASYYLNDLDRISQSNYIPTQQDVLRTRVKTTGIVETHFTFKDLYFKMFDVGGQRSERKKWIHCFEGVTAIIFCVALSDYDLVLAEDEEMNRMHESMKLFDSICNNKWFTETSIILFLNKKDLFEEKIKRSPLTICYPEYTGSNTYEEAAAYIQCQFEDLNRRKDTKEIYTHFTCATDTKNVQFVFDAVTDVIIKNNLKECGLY

[4] = molecular target: T4, human MOR signaling through GαoA (Homo sapiens, UniProt P35372); type: cell-based
T4 construct: host or cells: HEK 293T, transient
T4 sequence (P35372 whole entry): as the sequence (P35372 whole entry) above
T4 sequence (P09471 2-354 partner limits assumed): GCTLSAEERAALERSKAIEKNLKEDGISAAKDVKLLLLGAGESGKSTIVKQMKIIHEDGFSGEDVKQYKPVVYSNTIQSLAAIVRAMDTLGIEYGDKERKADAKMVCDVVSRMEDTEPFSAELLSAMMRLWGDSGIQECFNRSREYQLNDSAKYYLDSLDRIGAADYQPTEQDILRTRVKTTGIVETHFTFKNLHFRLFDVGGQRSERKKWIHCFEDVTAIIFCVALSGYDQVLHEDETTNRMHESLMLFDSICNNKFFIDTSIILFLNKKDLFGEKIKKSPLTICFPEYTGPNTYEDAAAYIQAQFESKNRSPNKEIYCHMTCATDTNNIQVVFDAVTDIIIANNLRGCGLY

[5] = molecular target: T5, human MOR signaling through GαoB (Homo sapiens, UniProt P35372); type: cell-based
T5 construct: host or cells: HEK 293T, transient
T5 sequence (P35372 whole entry): as the sequence (P35372 whole entry) above
T5 sequence (P09471 2-354 isoform P09471-2 partner limits assumed): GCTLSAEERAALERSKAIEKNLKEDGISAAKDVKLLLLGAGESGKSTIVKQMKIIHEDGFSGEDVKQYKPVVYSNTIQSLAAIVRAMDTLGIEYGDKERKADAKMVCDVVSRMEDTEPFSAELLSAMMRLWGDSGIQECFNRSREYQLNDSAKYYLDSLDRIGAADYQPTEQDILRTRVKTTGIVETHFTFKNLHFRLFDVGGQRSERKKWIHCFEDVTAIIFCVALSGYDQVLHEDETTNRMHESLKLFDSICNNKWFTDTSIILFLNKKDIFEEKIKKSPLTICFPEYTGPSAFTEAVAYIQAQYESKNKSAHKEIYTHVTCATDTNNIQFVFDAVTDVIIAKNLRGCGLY

[6] = molecular target: T6, human MOR signaling through Gαz (Homo sapiens, UniProt P35372); type: cell-based
T6 construct: host or cells: HEK 293T, transient
T6 sequence (P35372 whole entry): as the sequence (P35372 whole entry) above
T6 sequence (P19086 2-355 partner limits assumed): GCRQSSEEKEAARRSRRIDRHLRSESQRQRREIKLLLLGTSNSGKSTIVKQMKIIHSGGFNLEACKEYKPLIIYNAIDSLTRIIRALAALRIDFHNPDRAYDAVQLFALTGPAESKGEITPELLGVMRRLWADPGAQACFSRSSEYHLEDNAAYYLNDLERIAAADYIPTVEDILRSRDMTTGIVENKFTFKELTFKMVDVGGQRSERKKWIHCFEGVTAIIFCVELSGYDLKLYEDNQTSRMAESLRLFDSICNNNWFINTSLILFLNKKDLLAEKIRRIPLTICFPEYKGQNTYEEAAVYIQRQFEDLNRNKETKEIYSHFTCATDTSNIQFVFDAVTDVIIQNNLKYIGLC

[7] = molecular target: T7, human MOR signaling through Gαz with RGS20 (Homo sapiens, UniProt P35372); experiment: nanoBRET assay, MOR signaling through Gαz with RGS20 (RGSz1) coexpression; type: cell-based; conditions: RGS20 coexpressed
T7 construct: host or cells: HEK 293T, transient
T7 sequence (P35372 whole entry): as the sequence (P35372 whole entry) above
T7 sequence (P19086 2-355 partner limits assumed): as the sequence (P19086 2-355 partner limits assumed) above

[8] = molecular target: T8, human MOR signaling through GαoA, GαoB and Gαi3 (Homo sapiens, UniProt P35372); experiment: TruPATH BRET2 assay in HEK 293T cells compared with nanoBRET; type: cell-based; conditions: GαoB and Gαi3, 10 μM BMS-986122, Student's t test
T8 construct: host or cells: HEK 293T, transient
T8 sequence (P35372 whole entry): as the sequence (P35372 whole entry) above

[9] = molecular target: T9, MOR signaling through GαoB-i3ct (Homo sapiens, UniProt P35372); experiment: nanoBRET assay, MOR signaling through GαoB-i3ct chimera (data not shown); type: cell-based
T9 construct: expressed in transfected cells; host or cells: HEK 293T (inferred: same nanoBRET system)
T9 sequence (P35372 whole entry): as above

[10] = tested on: human MOR signaling through different Gα subunits; experiment: nanoBRET assay, comparison or average across Gα subunits; type: cell-based; conditions: for Average maximal increase in potency (EC50) caused by BMS-986122: average over Gα subunits, 10 μM BMS-986122
[11] = molecular target: human mu opioid receptor (MOR) (human) (UniProt P35372)
Sequence of human mu opioid receptor (MOR) (human) (P35372 whole entry): as above

[12] = molecular target: human mu opioid receptor (MOR) (human) (UniProt P35372); experiment: radioligand binding; competition with 1.0 nM [3H]naloxone on MOR-CHO cell membranes (50 ug membrane protein), vehicle; 60 min, 25 C; 50 mM Tris-HCl pH 7.4, 100 mM NaCl, 5 mM MgCl2, 1 mM EDTA, 1 mM DTT, 50 uM GDP (low-affinity buffer)
[13] = molecular target: human mu opioid receptor (MOR) (human) (UniProt P35372); experiment: radioligand binding; competition with 1.0 nM [3H]naloxone on MOR-CHO cell membranes (50 ug membrane protein), in the presence of 10 uM BMS-986122; 60 min, 25 C; 50 mM Tris-HCl pH 7.4, 100 mM NaCl, 5 mM MgCl2, 1 mM EDTA, 1 mM DTT, 50 uM GDP (low-affinity buffer)

CC(C)=CCN1CCC2(C)c3cc(O)ccc3CC1C2C (single isomer, unassigned; (-)) [(−)-Pentazocine]
Ki (Veh)/Ki (BMS) (human MOR): 1.0 ns | Emax [1]: 56 ± 1.4% and 105 ± 1.2% | Emax [2]: 35 ± 2.0% and 66 ± 4.3% | Emax [3]: 70 ± 1.8% and 102 ± 1.8% | Emax [4]: 48 ± 2.2% and 88 ± 3.0% | Emax [5]: 74 ± 0.33% and 96 ± 2.6% | Emax [6]: 105 ± 1.8% and 110 ± 6.7% | Emax with RGS20 coexpression versus without [7]: dramatically reduced

CC[C@@H]1CN2CC[C@@]3(O)C(=Nc4cccc(OC)c43)[C@@H]2C[C@@H]1/C(=C\OC)C(=O)OC [7-Hydroxymitragynine]
Ki (Veh)/Ki (BMS) (human MOR): 1.1 ns | Emax [6]: 33 ± 3.0% and 65 ± 4.1% | Δlog(τ) in TruPATH compared with nanoBRET [8]: not statistically different | Efficacy modulation by BMS-986122 [9]: reduced | Intrinsic efficacy [9]: increased substantially

COc1cc(Br)ccc1C1SCCN1S(=O)(=O)c1ccc(Cl)cc1 (stereo not drawn) [BMS-986124]
Antagonism of the effect of 3 μM BMS-986122 on the potency of DAMGO [2]: antagonized the effect of 3 μM BMS-986122, but not completely | Antagonism of the effect of 3 μM BMS-986187 on the potency of DAMGO [2]: partially block the effect of 3 μM BMS-986187

Cc1ccccc1COc1ccc(C2C3=C(CC(C)(C)CC3=O)OC3=C2C(=O)CC(C)(C)C3)cc1 [BMS-986187]
ΔΔlog(τ)oB-i3 ([10]; 7-hydroxymitragnine as agonist, 10 μM PAM, relative transduction coefficients compared between Gαi3 and GαoB): 0.157

C[C@@H](NC(=O)[C@@H](N)Cc1ccc(O)cc1)C(=O)NCC(=O)N(C)[C@@H](Cc1ccccc1)C(=O)NCCO [DAMGO, [D-Ala 2, N-MePhe 4, Gly-ol]-enkephalin]
Ki (Veh)/Ki (BMS) (human MOR): 6.8 **** | ΔpEC50 [1]: 0.596 ± 0.023 | ΔpEC50 [2]: 0.712 ± 0.064 | ΔpEC50 [3]: 0.467 ± 0.104 | ΔpEC50 [4]: 0.667 ± 0.022 | ΔpEC50 [5]: 0.791 ± 0.109 | ΔpEC50 [6]: 0.529 ± 0.087 | Average maximal increase in potency (EC50) caused by BMS-986122 [10]: 4.5 fold

CSCC[C@H](NC(=O)[C@H](Cc1ccccc1)NC(=O)CNC(=O)CNC(=O)[C@@H](N)Cc1ccc(O)cc1)C(=O)O [Met-Enkephalin, methionine-enkephalin]
Average maximal increase in potency (EC50) caused by BMS-986122 [10]: 3.8 fold

[D-Ala 2, N-MePhe 4, Gly-ol]-enkephalin (DAMGO) acetate (peptide)
EC50, nanoBRET G protein activation in HEK 293T cells, MOR signaling through Gαi1, vehicle [11]: 58 nM | EC50, nanoBRET G protein activation in HEK 293T cells, MOR signaling through Gαi2, vehicle [11]: 46 nM | EC50, nanoBRET G protein activation in HEK 293T cells, MOR signaling through Gαi2, with 10 μM BMS-986122 [11]: 9.1 nM | EC50, nanoBRET G protein activation in HEK 293T cells, MOR signaling through Gαi3, vehicle [11]: 24 nM | EC50, nanoBRET G protein activation in HEK 293T cells, MOR signaling through Gαi3, with 10 μM BMS-986122 [11]: 7.3 nM | EC50, nanoBRET G protein activation in HEK 293T cells, MOR signaling through GαoA, with 10 μM BMS-986122 [11]: 10 nM | EC50, nanoBRET G protein activation in HEK 293T cells, MOR signaling through GαoB, vehicle [11]: 74 nM | EC50, nanoBRET G protein activation in HEK 293T cells, MOR signaling through GαoB, with 10 μM BMS-986122 [11]: 11 nM | EC50, nanoBRET G protein activation in HEK 293T cells, MOR signaling through Gαz, vehicle [11]: 10 nM | EC50, nanoBRET G protein activation in HEK 293T cells, MOR signaling through Gαz, with 10 μM BMS-986122 [11]: 3.2 nM | Ki [12]: 240 nM | Ki [13]: 35 nM

methionine-enkephalin (met-enkephalin) acetate (peptide)
EC50, nanoBRET G protein activation in HEK 293T cells, MOR signaling through Gαi1, vehicle [11]: 52 nM | EC50, nanoBRET G protein activation in HEK 293T cells, MOR signaling through Gαi1, with 10 μM BMS-986122 [11]: 10 nM | EC50, nanoBRET G protein activation in HEK 293T cells, MOR signaling through Gαi3, with 10 μM BMS-986122 [11]: 8.7 nM | EC50, nanoBRET G protein activation in HEK 293T cells, MOR signaling through GαoA, vehicle [11]: 53 nM | EC50, nanoBRET G protein activation in HEK 293T cells, MOR signaling through GαoB, vehicle [11]: 53 nM | EC50, nanoBRET G protein activation in HEK 293T cells, MOR signaling through GαoB, with 10 μM BMS-986122 [11]: 14 nM | EC50, nanoBRET G protein activation in HEK 293T cells, MOR signaling through Gαz, with 10 μM BMS-986122 [11]: 17 nM | Ki [13]: 48 nM
